Where a name gives a salt, the structure may show the parent alone.

The first assay relates to Jeko-1 cells. The assay is described as follows: CellTiter-Glo 2.0 Cytotoxicity Assay. It counts as cell-based. The settings on record: Homo sapiens, JeKo-1, read-out: Jeko-1 EC50 (nM), Jeko-1 cells, 3000 cells/well; compounds added Day 1; CellTiter-Glo 2.0 luminescence read on Day 4 or 5. The procedure:
Reaction progress and synthetic intermediate analysis were assessed by LCMS (UV detection with ESI, APCI, or other mass detection) when applicable using a MeCN/water gradient with either TFA, formic acid, or NH4HCO3 modifier. Silica gel and reverse-phase flash column chromatography were conducted with commercially available pre-packed columns. Reverse-phase preparative HPLC purification was performed on preparative HPLC instruments with UV and MS detection using a MeCN/water gradient with either TFA, formic acid, or NH4OH modifier. ^1H NMR spectra were collected at room temperature, and chemical shifts are reported in ppm relative to the residual proteo-solvent signals, and multiplicities, coupling constants (where applicable), and signal integrations are listed parenthetically. Unless otherwise noted, all EC50 data presented in tables refers to the CellTiter-Glo® 2.0 Cytotoxicity Assay that is described in the Biological Assay section.
CellTiter-Glo® 2.0 Cytotoxicity Assay
Step 1: Seed 384-Well Plates for Assay (45 μL Per Well) on Day 0
Jeko-1 cells were quickly thawed in a cryo-vial by incubating them in a 37° C. water bath for <1 min until there is just a small bit of ice left in the vial. The vial was promptly removed and wiped down with 70% ethanol. The cells were transferred from the vial to a sterile centrifuge tube containing 8 mL of pre-warmed cell culture medium. The vial was flushed with an additional 1 mL of medium to ensure complete transfer of cells to the centrifuge tube. The cells were then centrifuged at 150×g for 5 minutes. The supernatant was aspirated, and the cell pellet was resuspended in 10-20 mL cell culture medium. Cells were counted using Vi-cell and prepared 6.6×10^4 cells/ml, 3000 cells/45 μL per well. Then added 45 μL/well of cells into Corning® 384-well Low Flange White Flat Bottom Polystyrene TC-treated Microplates (Corning, Cat #3570) using Standard Cassette Combi (if needed, dispense 1 dummy plate at 20 μL to help normalize Combi, using medium speed). The plates were spun down at 150×g for 30 seconds.
Step 2: Add Compounds on Day 1
The compound plates and reference compound stock were taken out and allowed to thaw at RT. The tubes were centrifuged at 2000×g for 30 seconds. The 10× Intermediate assay plates (Greiner plate, Cat #781280) were prepared using an Echo liquid handler. Proper buffer (HBSS (Gibco, Cat #14025-092)+10 mM HEPES (Gibco, Cat #15630-080)+0.1% BSA (Sigma, Cat #A9576)) were used to make serial dilutions. Media (no cells) was used for Max_E. Compound (5 μL of 10×) was transferred from intermediate plate to assay plate using a Bravo liquid handler using a very slow speed so the cell monolayer wasn't disturbed. The plates were spun down at 150×g for 30 seconds.
Step 3: CellTiter-Glo 2.0 Assay (Promega, Cat #G9242) on Day 4 or 5 (CellTiter-Glo Kit Stored at −70° C.)
The CellTiter-Glo® 2.0 Reagent was thawed at 4° C. overnight, taking care not to expose the reagent to temperatures above 25° C.). The kit was equilibrated to RT for approximately 30 minutes. CellTiter-Glo® 2.0 Reagent (20 μl) was added to 50 μl of medium containing cells using Standard Cassette Combi. The contents were mixed for 2-3 minutes on an orbital shaker to induce cell lysis. The plates were spun down at 150×g for 30 seconds. The plates were allowed to incubate at RT for 5 minutes to stabilize the luminescent signal.
Illustrative compounds of the present disclosure were tested in the above assay in Example 15, and results are provided in the Table 9 below: […]
A general note: In ATP-based viability assays light output follows the ATP content of the culture.
On to `CC[C@@]1(O)C(=O)OCc2c1cc1n(c2=O)Cc2c-1nc1cc(F)c(C)c3c1c2[C@@H](NC(=O)[C@@H](O)CO)CC3` [Compound 28, (1S,9S)-1-((S)-2,3-dihydroxypropanamido)-9-ethyl-5-fluoro-9-hydroxy-4-methyl-10,13-dioxo-2,3,9,10,13,15-hexahydro-1H,12H-benzo[de]pyrano[3′,4′: 6,7]indolizino[1,2-b]quinolin-7-ium hexafluorophosphate (V)], for which the EC50 is 9.7 nM.

With `CC[C@@]1(O)C(=O)OCc2c1cc1n(c2=O)Cc2c-1nc1cc(F)c(C)c3c1c2[C@@H](NC(=O)[C@H](O)CO)CC3` [Compound 29], the EC50 was found to be 3.7 nM.

As to `CC[C@@]1(O)C(=O)OCc2c1cc1n(c2=O)Cc2c-1nc1cc(F)c(C)c3c1c2[C@@H](NC(=O)C(O)C1(CO)CC1)CC3` (stereo partly drawn) [Compound 30, N-((1S,9S)-9-ethyl-5-fluoro-9-hydroxy-4-methyl-10,13-dioxo-2,3,9,10,13,15-hexahydro-1H,12H-benzo[de]pyrano[3′,4′: 6,7]indolizino[1,2-b]quinolin-1-yl)-2-hydroxy-2-(1-(hydroxymethyl)cyclopropyl)acetamide], the EC50 was 2.5 nM.

In the case of `CC[C@@]1(O)C(=O)OCc2c1cc1n(c2=O)Cc2c-1nc1cc(F)c(C)c3c1c2[C@@H](NC(=O)[C@@H](CCO)OC)CC3` [Compound 31, (R)—N-((1S,9S)-9-ethyl-5-fluoro-9-hydroxy-4-methyl-10,13-dioxo-2,3,9,10,13,15-hexahydro-1H,12H-benzo[de]pyrano[3′,4′: 6,7]indolizino[1,2-b]quinolin-1-yl)-4-hydroxy-2-methoxybutanamide], the EC50 amounted to 4.1 nM.

Turning to `CC[C@@]1(O)C(=O)OCc2c1cc1n(c2=O)Cc2c-1nc1cc(F)c(C)c3c1c2[C@@H](NC(=O)[C@@H](C)CO)CC3` [Compound 32, (S)—N-((1S,9S)-9-ethyl-5-fluoro-9-hydroxy-4-methyl-10,13-dioxo-2,3,9,10,13,15-hexahydro-1H,12H-benzo[de]pyrano[3′,4′: 6,7]indolizino[1,2-b]quinolin-1-yl)-3-hydroxy-2-methylpropanamide], the EC50 came out at 1.4 nM.

For `CC[C@@]1(O)C(=O)OCc2c1cc1n(c2=O)Cc2c-1nc1cc(F)c(C)c3c1c2[C@@H](NC(=O)[C@H](C)CO)CC3` [Compound 33], the EC50 came to 3.8 nM.

`CC[C@@]1(O)C(=O)OCc2c1cc1n(c2=O)Cc2c-1nc1cc(F)c(C)c3c1c2[C@@H](NC(=O)C(C)(C)CCO)CC3` [Compound 38, N-((1S,9S)-9-ethyl-5-fluoro-9-hydroxy-4-methyl-10,13-dioxo-2,3,9,10,13,15-hexahydro-1H,12H-benzo[de]pyrano[3′,4′: 6,7]indolizino[1,2-b]quinolin-1-yl)-4-hydroxy-2,2-dimethylbutanamide]: the EC50 is 4.6 nM.

On to `CC[C@@]1(O)C(=O)OCc2c1cc1n(c2=O)Cc2c-1nc1cc(F)c(C)c3c1c2[C@@H](NC(=O)C(C)(C)N)CC3` [Compound 41, 2-amino-N-((1S,9S)-9-ethyl-5-fluoro-9-hydroxy-4-methyl-10,13-dioxo-2,3,9,10,13,15-hexahydro-1H,12H-benzo[de]pyrano[3′,4′: 6,7]indolizino[1,2-b]quinolin-1-yl)-2-methylpropanamide formate], for which the EC50 came out at 2.3 nM.

`CC[C@@]1(O)C(=O)OCc2c1cc1n(c2=O)Cc2c-1nc1cc(F)c(C)c3c1c2[C@@H](NC(=O)C(N)CC(C)C)CC3` (stereo partly shown) [Compound 42]: the EC50 came out at 5.5 nM.

For `CC[C@@]1(O)C(=O)OCc2c1cc1n(c2=O)Cc2c-1nc1cc(F)c(C)c3c1c2[C@@H](NC(=O)[C@H](O)CN)CC3` [Compound 43], the EC50 came out at 27 nM.

Take `CC[C@@]1(O)C(=O)OCc2c1cc1n(c2=O)Cc2c-1nc1cc(F)c(C)c3c1c2[C@@H](NC(=O)[C@@H](O)CN)CC3` [Compound 44]: the EC50 turned out to be 78 nM.

As to `CC[C@@]1(O)C(=O)OCc2c1cc1n(c2=O)Cc2c-1nc1cc(F)c(C)c3c1c2[C@@H](NC(=O)[C@@H](N)CO)CC3` [Compound 45, (S)-2-amino-N-((1S,9S)-9-ethyl-5-fluoro-9-hydroxy-4-methyl-10,13-dioxo-2,3,9,10,13,15-hexahydro-1H,12H-benzo[de]pyrano[3′,4′: 6,7]indolizino[1,2-b]quinolin-1-yl)-3-hydroxypropanamide formate], the EC50 is 27 nM.

In the case of `CC[C@@]1(O)C(=O)OCc2c1cc1n(c2=O)Cc2c-1nc1cc(F)c(C)c3c1c2[C@@H](NC(=O)[C@H](N)CO)CC3` [Compound 46], the EC50 came out at 5 nM.

`CC[C@@]1(O)C(=O)OCc2c1cc1n(c2=O)Cc2c-1nc1cc(F)c(C)c3c1c2[C@@H](NC(=O)C(C)(NC(=O)[C@@H](C)N)C(F)F)CC3` (stereo partly shown) [Compound 47]: the EC50 was 22 nM.

On to `CC[C@@]1(O)C(=O)OCc2c1cc1n(c2=O)Cc2c-1nc1cc(F)c(C)c3c1c2[C@@H](NC(=O)C(C)(N)COC)CC3` (stereo partly shown) [Compound 48], for which the EC50 worked out at 8.7 nM.

As to `CC[C@@]1(O)C(=O)OCc2c1cc1n(c2=O)Cc2c-1nc1cc(F)c(C)c3c1c2[C@@H](NC(=O)C(F)(F)CCN)CC3` [Compound 49, 4-amino-N-((1S,9S)-9-ethyl-5-fluoro-9-hydroxy-4-methyl-10,13-dioxo-2,3,9,10,13,15-hexahydro-1H,12H-benzo[de]pyrano[3′,4′: 6,7]indolizino[1,2-b]quinolin-1-yl)-2,2-difluorobutanamide], the EC50 was determined as 14 nM.

`CC[C@@]1(O)C(=O)OCc2c1cc1n(c2=O)Cc2c-1nc1cc(F)c(C)c3c1c2[C@@H](NC(=O)[C@@H](N)CN)CC3` [Compound 50, (S)-2,3-diamino-N-((1S,9S)-9-ethyl-5-fluoro-9-hydroxy-4-methyl-10,13-dioxo-2,3,9,10,13,15-hexahydro-1H,12H-benzo[de]pyrano[3′,4′: 6,7]indolizino[1,2-b]quinolin-1-yl)propanamide formate]: the EC50 is 90 nM.

`CC[C@@]1(O)C(=O)OCc2c1cc1n(c2=O)Cc2c-1nc1cc(F)c(C)c3c1c2[C@@H](NCCCO)CC3` [Compound 52]: the EC50 worked out at 5.1 nM.

Take `CC[C@@]1(O)C(=O)OCc2c1cc1n(c2=O)Cc2c-1nc1cc(F)c(C)c3c1c2[C@@H](NCC(=O)NC(C)C)CC3` [Compound 55]: the EC50 was 8.8 nM.

As to `CC[C@@]1(O)C(=O)OCc2c1cc1n(c2=O)Cc2c-1nc1cc(F)c(C)c3c1c2[C@@H](NCc1ccccc1CO)CC3` [Compound 56], the EC50 came to 5.5 nM.

For the compound `CC[C@@]1(O)C(=O)OCc2c1cc1n(c2=O)Cc2c-1nc1cc(F)c(C)c3c1c2[C@@H](NCC(C)(F)F)CC3` [Compound 57], the EC50 was found to be 6.2 nM.

For `CC[C@@]1(O)C(=O)OCc2c1cc1n(c2=O)Cc2c-1nc1cc(F)c(C)c3c1c2[C@@H](NCC(F)(F)C(F)F)CC3` [Compound 58], the EC50 turned out to be 6.2 nM.

As for `CC[C@@]1(O)C(=O)OCc2c1cc1n(c2=O)Cc2c-1nc1cc(F)c(C)c3c1c2[C@@H](NC(C)C(F)F)CC3` (stereo partly shown) [Compound 59], the EC50 was 5.4 nM.

As for `CC[C@@]1(O)C(=O)OCc2c1cc1n(c2=O)Cc2c-1nc1cc(F)c(C)c3c1c2[C@@H](N(C)CC(F)F)CC3` [Compound 60, (1S,9S)-1-((2,2-difluoroethyl)(methyl)amino)-9-ethyl-5-fluoro-9-hydroxy-4-methyl-1,2,3,9,12,15-hexahydro-10H,13H-benzo[de]pyrano[3′,4′: 6,7]indolizino[1,2-b]quinoline-10,13-dione], the EC50 is 9.6 nM.

The same assay, now with this note: Homo sapiens; Jeko-1 cells, 3000 cells/well; compounds added Day 1; CellTiter-Glo 2.0 luminescence read on Day 4 or 5; read-out: Jeko-1 EC50.
Take `CC[C@@]1(O)C(=O)OCc2c1cc1n(c2=O)Cc2c-1nc1cc(F)c(C)c3c1c2[C@@H](NCCO)CC3` [Compound 51, (1S,9S)-9-ethyl-5-fluoro-9-hydroxy-1-((2-hydroxyethyl)amino)-4-methyl-1,2,3,9,12,15-hexahydro-10H,13H-benzo[de]pyrano[3′,4′: 6,7]indolizino[1,2-b]quinoline-10,13-dione formate]: the EC50 is 3.7 nM.
